Experimental data from the supplement of paper PMC10307832.

Assays:
Assay in all cases: relative viability (nuclei count vs DMSO), 5 days (fraction); higher = more cells survive
AZD8055 + Vorinostat = compound: COc1ccc(-c2ccc3c(N4CCOC[C@@H]4C)nc(N4CCOC[C@@H]4C)nc3n2)cc1CO [AZD8055] + O=C(CCCCCCC(=O)Nc1ccccc1)NO [Vorinostat] (partner 1 µM)
How it was run: (§1)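 Lung cancer cell lines in 1536-well plates got either a single drug or a fixed anchor-drug dose together with five library-drug doses (not always all listed) in √10 steps, by pin tool, on the day after seeding. Nuclei were counted after 5 days, and relative viability is the treated-to-vehicle ratio of nuclei counts. Values are medians of duplicate plates.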

AZD8055 + Tozasertib = compound: COc1ccc(-c2ccc3c(N4CCOC[C@@H]4C)nc(N4CCOC[C@@H]4C)nc3n2)cc1CO [AZD8055] + Cc1cc(Nc2cc(N3CCN(C)CC3)nc(Sc3ccc(NC(=O)C4CC4)cc3)n2)n[nH]1 [Tozasertib] (partner 0.1 µM)
How it was run: as §1

AZD8055 + Pemetrexed = compound: COc1ccc(-c2ccc3c(N4CCOC[C@@H]4C)nc(N4CCOC[C@@H]4C)nc3n2)cc1CO [AZD8055] + Nc1nc2[nH]cc(CCc3ccc(C(=O)N[C@@H](CCC(=O)O)C(=O)O)cc3)c2c(=O)[nH]1 [Pemetrexed] (partner 0.2 µM)
How it was run: as §1

AZD8055 + AZD7762 = compound: COc1ccc(-c2ccc3c(N4CCOC[C@@H]4C)nc(N4CCOC[C@@H]4C)nc3n2)cc1CO [AZD8055] + NC(=O)Nc1cc(-c2cccc(F)c2)sc1C(=O)N[C@H]1CCCNC1 [AZD7762] (partner 0.2 µM)
How it was run: as §1

AZD8055 + Trametinib = compound: COc1ccc(-c2ccc3c(N4CCOC[C@@H]4C)nc(N4CCOC[C@@H]4C)nc3n2)cc1CO [AZD8055] + CC(=O)Nc1cccc(-n2c(=O)n(C3CC3)c(=O)c3c(Nc4ccc(I)cc4F)n(C)c(=O)c(C)c32)c1 [Trametinib] (partner 0.02 µM)
How it was run: as §1

AZD8055 + Decitabine = compound: COc1ccc(-c2ccc3c(N4CCOC[C@@H]4C)nc(N4CCOC[C@@H]4C)nc3n2)cc1CO [AZD8055] + Nc1ncn([C@H]2C[C@H](O)[C@@H](CO)O2)c(=O)n1 [Decitabine] (partner 2 µM)
How it was run: as §1

AZD8055 + Dasatinib = compound: COc1ccc(-c2ccc3c(N4CCOC[C@@H]4C)nc(N4CCOC[C@@H]4C)nc3n2)cc1CO [AZD8055] + Cc1nc(Nc2ncc(C(=O)Nc3c(C)cccc3Cl)s2)cc(N2CCN(CCO)CC2)n1 [Dasatinib] (partner 0.075 µM)
How it was run: as §1

AZD8055 + Luminespib = compound: COc1ccc(-c2ccc3c(N4CCOC[C@@H]4C)nc(N4CCOC[C@@H]4C)nc3n2)cc1CO [AZD8055] + CCNC(=O)c1noc(-c2cc(C(C)C)c(O)cc2O)c1-c1ccc(CN2CCOCC2)cc1 [Luminespib] (partner 0.01 µM)
How it was run: as §1

AZD8055 + Phenformin = compound: COc1ccc(-c2ccc3c(N4CCOC[C@@H]4C)nc(N4CCOC[C@@H]4C)nc3n2)cc1CO [AZD8055] + N=C(N)NC(=N)NCCc1ccccc1 [Phenformin] (partner 250 µM)
How it was run: as §1

AZD8055 + Olaparib = compound: COc1ccc(-c2ccc3c(N4CCOC[C@@H]4C)nc(N4CCOC[C@@H]4C)nc3n2)cc1CO [AZD8055] + O=C(c1cc(Cc2n[nH]c(=O)c3ccccc23)ccc1F)N1CCN(C(=O)C2CC2)CC1 [Olaparib] (partner 8 µM)
How it was run: as §1

AZD8055 + OSI-027 = compound: COc1ccc(-c2ccc3c(N4CCOC[C@@H]4C)nc(N4CCOC[C@@H]4C)nc3n2)cc1CO [AZD8055] + COc1cccc2cc(-c3nc([C@H]4CC[C@H](C(=O)O)CC4)n4ncnc(N)c34)[nH]c12 [OSI-027] (partner 0.5 µM)
How it was run: as §1

AZD8055 + Palbociclib = compound: COc1ccc(-c2ccc3c(N4CCOC[C@@H]4C)nc(N4CCOC[C@@H]4C)nc3n2)cc1CO [AZD8055] + CC(=O)c1c(C)c2cnc(Nc3ccc(N4CCNCC4)cn3)nc2n(C2CCCC2)c1=O [Palbociclib] (partner 0.5 µM)
How it was run: as §1

AZD8055 + Foretinib = compound: COc1ccc(-c2ccc3c(N4CCOC[C@@H]4C)nc(N4CCOC[C@@H]4C)nc3n2)cc1CO [AZD8055] + COc1cc2c(Oc3ccc(NC(=O)C4(C(=O)Nc5ccc(F)cc5)CC4)cc3F)ccnc2cc1OCCCN1CCOCC1 [Foretinib] (partner 0.25 µM)
How it was run: as §1

AZD8055 = compound: COc1ccc(-c2ccc3c(N4CCOC[C@@H]4C)nc(N4CCOC[C@@H]4C)nc3n2)cc1CO [AZD8055]
How it was run: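 Following overnight incubation at 37 °C, lung cancer cell lines in 1536-well plates were pinned with five library-drug doses (not always all listed) in √10 steps on vehicle-anchored plates. The cells then spent 5 days without medium change before a combined fix, permeabilisation and Hoechst stain, 4× imaging and MetaXpress nuclear counts. Viability is the treated-to-vehicle ratio of nuclei, taken as the median across plates. Only plates with control CV below 25% and at least one doubling passed.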

NCI-H2342
relative viability (AZD8055 + Vorinostat; first compound 0.01 µM): 0.766 | relative viability (AZD8055 + Vorinostat; first compound 0.03162 µM): 0.702 | relative viability (AZD8055 + Vorinostat; first compound 0.1 µM): 0.651 | relative viability (AZD8055 + Vorinostat; first compound 0.3162 µM): 0.501 | relative viability (AZD8055 + Vorinostat; first compound 1 µM): 0.53 | relative viability (AZD8055 + Tozasertib; first compound 0.01 µM): 0.477 | relative viability (AZD8055 + Tozasertib; first compound 0.03162 µM): 0.423 | relative viability (AZD8055 + Tozasertib; first compound 0.1 µM): 0.395 | relative viability (AZD8055 + Tozasertib; first compound 0.3162 µM): 0.345 | relative viability (AZD8055 + Tozasertib; first compound 1 µM): 0.371 | relative viability (AZD8055 + Pemetrexed; first compound 0.01 µM): 0.748 | relative viability (AZD8055 + Pemetrexed; first compound 0.03162 µM): 0.785 | relative viability (AZD8055 + Pemetrexed; first compound 0.1 µM): 0.542 | relative viability (AZD8055 + Pemetrexed; first compound 0.3162 µM): 0.49 | relative viability (AZD8055 + Pemetrexed; first compound 1 µM): 0.549 | relative viability (AZD8055 + AZD7762; first compound 0.01 µM): 0.422 | relative viability (AZD8055 + AZD7762; first compound 0.03162 µM): 0.459 | relative viability (AZD8055 + AZD7762; first compound 0.1 µM): 0.308 | relative viability (AZD8055 + AZD7762; first compound 0.3162 µM): 0.376 | relative viability (AZD8055 + AZD7762; first compound 1 µM): 0.43 | relative viability (AZD8055 + Trametinib; first compound 0.01 µM): 0.894 | relative viability (AZD8055 + Trametinib; first compound 0.03162 µM): 0.731 | relative viability (AZD8055 + Trametinib; first compound 0.1 µM): 0.598 | relative viability (AZD8055 + Trametinib; first compound 0.3162 µM): 0.552 | relative viability (AZD8055 + Trametinib; first compound 1 µM): 0.525 | relative viability (AZD8055 + Decitabine; first compound 0.01 µM): 0.741 | relative viability (AZD8055 + Decitabine; first compound 0.03162 µM): 0.653 | relative viability (AZD8055 + Decitabine; first compound 0.1 µM): 0.668 | relative viability (AZD8055 + Decitabine; first compound 0.3162 µM): 0.668 | relative viability (AZD8055 + Decitabine; first compound 1 µM): 0.504 | relative viability (AZD8055 + Dasatinib; first compound 0.01 µM): 0.316 | relative viability (AZD8055 + Dasatinib; first compound 0.03162 µM): 0.288 | relative viability (AZD8055 + Dasatinib; first compound 0.1 µM): 0.268 | relative viability (AZD8055 + Dasatinib; first compound 0.3162 µM): 0.293 | relative viability (AZD8055 + Dasatinib; first compound 1 µM): 0.304 | relative viability (AZD8055 + Luminespib; first compound 0.01 µM): 0.579 | relative viability (AZD8055 + Luminespib; first compound 0.03162 µM): 0.535 | relative viability (AZD8055 + Luminespib; first compound 0.1 µM): 0.599 | relative viability (AZD8055 + Luminespib; first compound 0.3162 µM): 0.419 | relative viability (AZD8055 + Luminespib; first compound 1 µM): 0.424 | relative viability (AZD8055 + Phenformin; first compound 0.01 µM): 0.609 | relative viability (AZD8055 + Phenformin; first compound 0.03162 µM): 0.495 | relative viability (AZD8055 + Phenformin; first compound 0.1 µM): 0.429 | relative viability (AZD8055 + Phenformin; first compound 0.3162 µM): 0.394 | relative viability (AZD8055 + Phenformin; first compound 1 µM): 0.437 | relative viability (AZD8055 + Olaparib; first compound 0.01 µM): 0.376 | relative viability (AZD8055 + Olaparib; first compound 0.03162 µM): 0.439 | relative viability (AZD8055 + Olaparib; first compound 0.1 µM): 0.362 | relative viability (AZD8055 + Olaparib; first compound 0.3162 µM): 0.309 | relative viability (AZD8055 + Olaparib; first compound 1 µM): 0.289 | relative viability (AZD8055 + OSI-027; first compound 0.01 µM): 0.598 | relative viability (AZD8055 + OSI-027; first compound 0.03162 µM): 0.621 | relative viability (AZD8055 + OSI-027; first compound 0.1 µM): 0.571 | relative viability (AZD8055 + OSI-027; first compound 0.3162 µM): 0.529 | relative viability (AZD8055 + OSI-027; first compound 1 µM): 0.594 | relative viability (AZD8055 + Palbociclib; first compound 0.01 µM): 0.489 | relative viability (AZD8055 + Palbociclib; first compound 0.03162 µM): 0.537 | relative viability (AZD8055 + Palbociclib; first compound 0.1 µM): 0.458 | relative viability (AZD8055 + Palbociclib; first compound 0.3162 µM): 0.473 | relative viability (AZD8055 + Palbociclib; first compound 1 µM): 0.426 | relative viability (AZD8055 + Foretinib; first compound 0.01 µM): 0.999 | relative viability (AZD8055 + Foretinib; first compound 0.03162 µM): 1.05 | relative viability (AZD8055 + Foretinib; first compound 0.1 µM): 0.801 | relative viability (AZD8055 + Foretinib; first compound 0.3162 µM): 0.538 | relative viability (AZD8055 + Foretinib; first compound 1 µM): 0.578 | relative viability (AZD8055; 0.01 µM): 1.19 | relative viability (AZD8055; 0.03162 µM): 0.881 | relative viability (AZD8055; 0.1 µM): 0.735 | relative viability (AZD8055; 0.3162 µM): 0.476 | relative viability (AZD8055; 1 µM): 0.572
